Experimental data from PubChem BioAssay (NCI).
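Cultured in 96-well plates, cells were exposed to test compound for 48 hours across five concentrations. GI50 = concentration required for 50% inhibition of growth. Definition used: TGI = concentration required for complete inhibition of growth.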

Tests used:
Test in all cases: NCI tumour cell line growth inhibition, 48 h
SF-539 CNS = test system: SF-539 CNS
SF-295 CNS = test system: SF-295 CNS
U251 CNS = test system: U251 CNS
HCC-2998 colon = test system: HCC-2998 colon
PC-3 prostate = test system: PC-3 prostate
NCI-H522 lung = test system: NCI-H522 lung
MOLT-4 leukemia = test system: MOLT-4 leukemia
RXF 393 renal = test system: RXF 393 renal
M14 melanoma = test system: M14 melanoma
HT29 colon = test system: HT29 colon

Row | SMILES | GI50 (SF-539 CNS) [µM] | TGI (SF-539 CNS) [µM] | GI50 (SF-295 CNS) [µM] | TGI (SF-295 CNS) [µM] | GI50 (U251 CNS) [µM] | TGI (U251 CNS) [µM] | GI50 (HCC-2998 colon) [µM] | TGI (HCC-2998 colon) [µM] | GI50 (PC-3 prostate) [µM] | TGI (PC-3 prostate) [µM] | GI50 (NCI-H522 lung) [µM] | TGI (NCI-H522 lung) [µM] | GI50 (MOLT-4 leukemia) [µM] | TGI (MOLT-4 leukemia) [µM] | GI50 (RXF 393 renal) [µM] | TGI (RXF 393 renal) [µM] | GI50 (M14 melanoma) [µM] | TGI (M14 melanoma) [µM] | GI50 (HT29 colon) [µM] | TGI (HT29 colon) [µM]
1 | COc1ccc2c(c1)cn1c3ccc(O)cc3nc(N)c21 | 0.237 | 2.72 | 0.203 | 4 | 0.0547 | 4.11 | 0.626 | 5.24 | 0.761 | 13.4 | 0.111 | 2.22 | 1.18 | 21.7 | 0.0852 | 2.66 | 0.0798 | 4.98 | 1.45 | 4.31
2 | CCOC(=O)c1cc(NS(=O)(=O)c2ccccc2)cc(C(=O)OCC)c1 | > 100 | > 100 | > 100 | > 100 | > 100 | > 100 | > 100 | > 100 | > 100 | > 100 | > 100 | > 100 | > 100 | > 100 | > 100 | > 100 | – | – | > 100 | > 100
3 | COc1ccc(-c2c3c(N)nc(-c4ccncc4)nc3nc3c2c(C)nn3-c2ccccc2)cc1 | 1.93 | 4.97 | 24.7 | > 100 | 3.6 | 19 | > 100 | > 100 | > 100 | > 100 | 4.94 | 53.5 | 8.58 | > 100 | 2.72 | 20.6 | 17.5 | > 100 | 3.57 | 16
4 | COc1cc2c(c(OC)c1)C1c3ccccc3NC(=O)N1CC2 (stereo not drawn) | 1.7 | 7.26 | 2.63 | 9.14 | 4.38 | > 100 | 3.31 | > 100 | 3.89 | > 100 | 2.97 | 11.8 | 3.99 | > 100 | 2.38 | 5.6 | 1.97 | 21.4 | 3.37 | > 100
5 | COc1cccc(-n2ncc3c(N/N=C/c4ccc(C(=O)NCCN(C)C)cc4)ncnc32)c1 | 3.78 | 7.79 | 3.85 | 7.93 | 3.25 | 6.77 | 4.66 | 8.58 | 2.97 | 6.47 | 2.04 | 5.96 | 4.48 | 11 | 0.496 | 3.53 | 1.8 | 5.55 | 0.814 | 4.55
6 | Cn1cc(-c2ccc3occ(-c4cccc(-c5ccncc5)c4)c3n2)cn1 | 0.734 | 5.54 | 0.809 | > 100 | 0.601 | > 100 | 1.74 | > 100 | 0.961 | > 100 | 0.594 | 12.1 | 0.582 | > 100 | 0.661 | 4.44 | 0.457 | > 100 | 0.356 | > 100
7 | CN(C)CCCNC(CC#N)CCC#N (stereo not drawn) | – | > 10 | – | > 10 | – | > 10 | – | > 10 | – | > 10 | – | > 10 | – | > 10 | – | > 10 | – | > 10 | – | > 10
8 | Cc1ccccc1[P+](Cc1ccccc1)(c1ccccc1)c1ccccc1 | 2.34 | 24.7 | 1.75 | 5.28 | 1.99 | 35.2 | 2.06 | 23.2 | 1.45 | > 100 | 2.09 | 10.5 | 3.58 | 17.6 | 4.35 | 51.8 | 2.51 | 12.6 | 1.79 | 29
9 | O=C1/C(=C\c2c[nH]c3ccccc23)c2ccccc2N1c1c(Cl)cccc1Cl | 1.59 | 3.01 | 1.75 | 3.51 | 1.58 | 3.68 | 1.7 | 3.12 | 1.35 | 2.96 | 1.81 | 3.56 | 1.5 | 5.13 | 2.02 | 3.92 | – | – | 1.85 | 3.4
10 | CCCCCCCCCCCCCCCCN1CC2CCCCC2C1 (stereo not drawn) | 5.52 | 18.6 | 14.6 | 37 | 14.5 | > 100 | 2.17 | 5.44 | 2.11 | 5.56 | 4.4 | 17 | 1.92 | 4.28 | 2.3 | 6.78 | 2.93 | 9.22 | – | –
11 | OC(c1cc(-c2ccccc2)nc2ccc(Cl)cc12)C1CCCCN1 (stereo not drawn) | 1.84 | 3.52 | 1.9 | 3.55 | – | – | 1.83 | 3.34 | 2.21 | 4.79 | 2.11 | 4.53 | 2.51 | 6.2 | 2.01 | 3.84 | 1.87 | 3.54 | 2.96 | 6.57
12 | COc1ccc(-c2ccc(/C=N/n3c(COc4ccc(Cl)cc4Cl)nn(CN4CCOCC4)c3=S)o2)c([N+](=O)[O-])c1 | 18.8 | 62.9 | 17.4 | 46.9 | – | – | 22.7 | 60.2 | 18.6 | 50.6 | 45.1 | > 100 | 19.4 | 63.3 | 24.3 | 88.9 | 26 | 72.6 | 42 | > 100
13 | COc1ccc(OC)c(/C=C2\SC(=S)NC2=O)c1 | 17.4 | 49.6 | 42.8 | > 100 | 41 | > 100 | – | – | 35 | > 100 | 31.4 | > 100 | 44.8 | > 100 | 18.4 | 64.8 | 30.7 | > 100 | 42.1 | > 100
